Laboratory results published in ChEMBL document CHEMBL1127234, “Acceptor analogues as potential inhibitors of bovine -1,4-galactosyl transferase” (Bioorg Med Chem Lett, 1994).
pKi: −log10 of the molar value.

What was measured:
[1] = target: T1, Beta-1,4-galactosyltransferase 1 (Bos taurus) (UniProt P08037); assay: Inhibitory activity against bovine Beta-1,4-galactosyltransferase at 100 uM concentration; ND means Not detectable
T1 sequence (whole entry): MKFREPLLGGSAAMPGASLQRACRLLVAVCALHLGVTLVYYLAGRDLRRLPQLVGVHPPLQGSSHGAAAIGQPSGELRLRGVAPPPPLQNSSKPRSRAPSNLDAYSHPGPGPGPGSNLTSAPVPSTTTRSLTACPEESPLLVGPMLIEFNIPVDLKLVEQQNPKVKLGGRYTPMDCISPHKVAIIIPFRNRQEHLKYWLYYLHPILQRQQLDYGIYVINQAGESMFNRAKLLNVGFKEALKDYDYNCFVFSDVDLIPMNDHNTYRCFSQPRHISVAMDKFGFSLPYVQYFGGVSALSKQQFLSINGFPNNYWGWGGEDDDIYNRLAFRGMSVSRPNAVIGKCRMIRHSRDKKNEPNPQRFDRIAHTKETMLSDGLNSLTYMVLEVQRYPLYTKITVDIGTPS

[2] = target: T1, Beta-1,4-galactosyltransferase 1 (Bos taurus); assay: (§1) Inhibitory activity against bovine Beta-1,4-galactosyltransferase at 100 uM concentration
[3] = target: T2, Beta-1,4-galactosyltransferase 1 (Bos taurus, UniProt P08037); assay: as §1
T2 sequence (P08037 whole entry): T1 sequence (whole entry)

**Q.** For `CC(=O)N[C@H]1[C@H](OCc2ccccc2)O[C@H](CO)[C@@H](N=[N+]=[N-])[C@@H]1O`, which Rate [1] is on record?
**A.** Not detectable

**Q.** Which Rate [2] does the source give for `CC(=O)N[C@H]1[C@H](OCc2ccccc2)O[C@H](CO)[C@@H](N)[C@@H]1O` here?
**A.** 2%

**Q.** What about the pKi [3] of the same molecule?
**A.** 3.07

**Q.** How did the Rate [2] turn out when `CC(=O)N[C@H]1[C@H](O)[C@@H](N)[C@H](OCc2ccccc2)O[C@@H]1CO` was run?
**A.** 4%

**Q.** Which Rate [2] does the source give for `CC(=O)N[C@H]1[C@H](OCc2ccccc2)O[C@H](CO)[C@@H](NC(C)=O)[C@@H]1O` here?
**A.** 2%

**Q.** What about the Rate [1] of the same molecule?
**A.** Not detectable

**Q.** How did the Rate [2] turn out when `CC(=O)N[C@H]1[C@H](O)[C@@H](N=[N+]=[N-])[C@H](OCc2ccccc2)O[C@@H]1CO` was run?
**A.** 27%

**Q.** With `CC(=O)N[C@H]1[C@H](OCc2ccccc2)O[C@H](CO)[C@@H](O)[C@@H]1O` as the molecule, how does the Rate [2] read?
**A.** 100%
